Measurements published in patent US20050142581A1, “Microrna as ligands and target molecules” (priority 2003, published 2005).
Oligonucleotides are written 5' to 3', each unit as a sugar letter and its base; * is a phosphorothioate linkage, no mark a phosphodiester; rarer units and linkages stand in square brackets, end groups in braces. Plain capitals give the bases only. e = 2'-O-(2-methoxyethyl) (MOE); [5mC] = 5-methylcytosine; d = 2'-deoxy (DNA)

system: human CD40 mRNA; test: Inhibition of CD40 mRNA levels by oligonucleotides (real-time RT-PCR); type: cell-based; set-up: concentration or dose not given beside the values; conditions: 2'-MOE gapmers, 18 nucleotides, phosphorothioate throughout; averaged from three experiments
Summary of the method: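 Cells at ~80% confluency were transfected with oligonucleotide at 150 nM final using Lipofectin 3.75 μg/ml for 4 h and harvested 16 h after treatment. Poly(A)+ mRNA was taken for TaqMan real-time RT-PCR of CD40, and percent inhibition was derived from a standard curve of untreated control mRNA.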

Going from “19220 (DNA eT*e[5mC]*eT*eG*dG*dA*dT*dG*dG*dA*dC*dA*dG*dC*eG*eG*eT*e[5mC]; antisense) [compound 19220]” to “19221 (antisense eG*eG*eT*eG*dG*dT*dT*dC*dT*dG*dG*dA*dT*dG*eG*eA*e[5mC]*eA) [compound 19221]”, the “% Inhibition (Inhibition of CD40 mRNA Levels by Chimeric Phosphorothioate Oligonucleotides)” value (“% Inhibition” below) rises from 78.71% to 81.33%.

Compared with “19222 (antisense eG*eT*eG*eG*dG*dT*dG*dG*dT*dT*dC*dT*dG*dG*eA*eT*eG*eG) [compound 19222]”, “19223 (antisense eG*e[5mC]*eA*eG*dT*dG*dG*dG*dT*dG*dG*dT*dT*dC*eT*eG*eG*eA) [compound 19223]” is higher in “% Inhibition” value: 57.79% for the first, 73.70% for the second.

Compared with “19224 (antisense e[5mC]*eA*e[5mC]*eA*dA*dA*dG*dA*dA*dC*dA*dG*dC*dA*e[5mC]*eT*eG*eA) [compound 19224]”, “19225 (antisense e[5mC]*eT*eG*eG*dC*dA*dC*dA*dA*dA*dG*dA*dA*dC*eA*eG*e[5mC]*eA) [compound 19225]” is higher in “% Inhibition” value: 40.25% for the first, 60.11% for the second.

First: 19226 (antisense eT*e[5mC]*e[5mC]*eT*dG*dG*dC*dT*dG*dG*dC*dA*dC*dA*eA*eA*eG*eA) [compound 19226]
Second: 19227 (antisense e[5mC]*eT*eG*eT*dC*dC*dT*dG*dG*dC*dT*dG*dG*dC*eA*e[5mC]*eA*eA) [compound 19227]
The “% Inhibition” value of the first is lower: 10.18% for the first, 24.37% for the second.

First: 19228 (antisense e[5mC]*eT*e[5mC]*eA*dC*dC*dA*dG*dT*dT*dT*dC*dT*dG*eT*e[5mC]*e[5mC]*eT) [compound 19228]
Second: 19229 (antisense eT*e[5mC]*eA*e[5mC]*dT*dC*dA*dC*dC*dA*dG*dT*dT*dT*e[5mC]*eT*eG*eT) [compound 19229]
The “% Inhibition” value of the first is lower: 22.30% for the first, 40.64% for the second.

Going from “19230 (antisense eG*eT*eG*e[5mC]*dA*dG*dT*dC*dA*dC*dT*dC*dA*dC*e[5mC]*eA*eG*eT) [compound 19230]” to “19231 (antisense eA*e[5mC]*eT*e[5mC]*dT*dG*dT*dG*dC*dA*dG*dT*dC*dA*e[5mC]*eT*e[5mC]*eA) [compound 19231]”, the “% Inhibition” value falls from 82.04% to 37.59%.

Going from “19232 (antisense e[5mC]*eA*eG*eT*dG*dA*dA*dC*dT*dC*dT*dG*dT*dG*e[5mC]*eA*eG*eT) [compound 19232]” to “19233 (antisense eA*eT*eT*e[5mC]*dC*dG*dT*dT*dT*dC*dA*dG*dT*dG*eA*eA*e[5mC]*eT) [compound 19233]”, the “% Inhibition” value rises from 40.26% to 56.03%.

First: 19234 (antisense eG*eA*eA*eG*dG*dC*dA*dT*dT*dC*dC*dG*dT*dT*eT*e[5mC]*eA*eG) [compound 19234]
Second: 19235 (antisense eT*eT*e[5mC]*eA*dC*dC*dG*dC*dA*dA*dG*dG*dA*dA*eG*eG*e[5mC]*eA) [compound 19235]
The “% Inhibition” value of the first is lower: 32.21% for the first, 61.03% for the second.

First: 19236 (antisense e[5mC]*eT*e[5mC]*eT*dG*dT*dT*dC*dC*dA*dG*dG*dT*dG*eT*e[5mC]*eT*eA) [compound 19236]
Second: 19237 (antisense e[5mC]*eT*eG*eG*dT*dG*dG*dC*dA*dG*dT*dG*dT*dG*eT*e[5mC]*eT*e[5mC]) [compound 19237]
The “% Inhibition” value of the first is lower: 62.19% for the first, 70.32% for the second.

First: 19238 (antisense eT*eG*eG*eG*dG*dT*dC*dG*dC*dA*dG*dT*dA*dT*eT*eT*eG*eT) [compound 19238]
Second: 19239 (antisense eG*eG*eT*eT*dG*dG*dG*dG*dT*dC*dG*dC*dA*dG*eT*eA*eT*eT) [compound 19239]
The “% Inhibition” value of the first is lower: 0.00% for the first, 19.40% for the second.

Going from “19240 (antisense e[5mC]*eT*eA*eG*dG*dT*dT*dG*dG*dG*dG*dT*dC*dG*e[5mC]*eA*eG*eT) [compound 19240]” to “19241 (antisense eG*eG*eT*eG*dC*dC*dC*dT*dT*dC*dT*dG*dC*dT*eG*eG*eA*e[5mC]) [compound 19241]”, the “% Inhibition” value rises from 36.32% to 78.91%.

First: 19242 (antisense e[5mC]*eT*eG*eA*dG*dG*dT*dG*dC*dC*dC*dT*dT*dC*eT*eG*e[5mC]*eT) [compound 19242]
Second: 19243 (antisense eG*eT*eG*eT*dC*dT*dG*dT*dT*dT*dC*dT*dG*dA*eG*eG*eT*eG) [compound 19243]
The “% Inhibition” value of the first is higher: 69.84% for the first, 63.32% for the second.

Compared with “19244 (antisense eT*eG*eG*eT*dG*dT*dC*dT*dG*dT*dT*dT*dC*dT*eG*eA*eG*eG) [compound 19244]”, “19245 (antisense eA*e[5mC]*eA*eG*dG*dT*dG*dC*dA*dG*dA*dT*dG*dG*eT*eG*eT*e[5mC]) [compound 19245]” is higher in “% Inhibition” value: 42.83% for the first, 73.31% for the second.

First: 19246 (antisense eT*eT*e[5mC]*eA*dC*dA*dG*dG*dT*dG*dC*dA*dG*dA*eT*eG*eG*eT) [compound 19246]
Second: 19247 (antisense eG*eT*eG*e[5mC]*dC*dA*dG*dC*dC*dT*dT*dC*dT*dT*e[5mC]*eA*e[5mC]*eA) [compound 19247]
The “% Inhibition” value of the first is lower: 47.72% for the first, 61.32% for the second.

First: 19248 (antisense eT*eA*e[5mC]*eA*dG*dT*dG*dC*dC*dA*dG*dC*dC*dT*eT*e[5mC]*eT*eT) [compound 19248]
Second: 19249 (antisense eG*eG*eA*e[5mC]*dA*dC*dA*dG*dC*dT*dC*dT*dC*dA*e[5mC]*eA*eG*eG) [compound 19249]
The “% Inhibition” value of the first is higher: 46.82% for the first, 0.00% for the second.

Compared with “19250 (antisense eT*eG*e[5mC]*eA*dG*dG*dA*dC*dA*dC*dA*dG*dC*dT*e[5mC]*eT*e[5mC]*eA) [compound 19250]”, “19251 (antisense eG*eA*eG*e[5mC]*dG*dG*dT*dG*dC*dA*dG*dG*dA*dC*eA*e[5mC]*eA*eG) [compound 19251]” is lower in “% Inhibition” value: 52.05% for the first, 50.15% for the second.

Compared with “19252 (antisense eA*eA*eG*e[5mC]*dC*dG*dG*dG*dC*dG*dA*dG*dC*dA*eT*eG*eA*eG) [compound 19252]”, “19253 (antisense eA*eA*eT*e[5mC]*dT*dG*dC*dT*dT*dG*dA*dC*dC*dC*e[5mC]*eA*eA*eA) [compound 19253]” is lower in “% Inhibition” value: 32.36% for the first, 0.00% for the second.

Compared with “19254 (antisense eG*eA*eA*eA*dC*dC*dC*dC*dT*dG*dT*dA*dG*dC*eA*eA*eT*e[5mC]) [compound 19254]”, “19255 (antisense eG*eT*eA*eT*dC*dA*dG*dA*dA*dA*dC*dC*dC*dC*eT*eG*eT*eA) [compound 19255]” is higher in “% Inhibition” value: 0.00% for the first, 36.13% for the second.

Compared with “19256 (antisense eG*e[5mC]*eT*e[5mC]*dG*dC*dA*dG*dA*dT*dG*dG*dT*dA*eT*e[5mC]*eA*eG) [compound 19256]”, “19257 (antisense eG*e[5mC]*eA*eG*dG*dG*dC*dT*dC*dG*dC*dA*dG*dA*eT*eG*eG*eT) [compound 19257]” is higher in “% Inhibition” value: 64.65% for the first, 74.95% for the second.

Going from “19258 (antisense eT*eG*eG*eG*dC*dA*dG*dG*dG*dC*dT*dC*dG*dC*eA*eG*eA*eT) [compound 19258]” to “19259 (antisense eG*eA*e[5mC]*eT*dG*dG*dG*dC*dA*dG*dG*dG*dC*dT*e[5mC]*eG*e[5mC]*eA) [compound 19259]”, the “% Inhibition” value rises from 0.00% to 82.00%.

First: 19260 (antisense e[5mC]*eA*eT*eT*dG*dG*dA*dG*dA*dA*dG*dA*dA*dG*e[5mC]*e[5mC]*eG*eA) [compound 19260]
Second: 19261 (eG*eA*eT*eG*dA*dC*dA*dC*dA*dT*dT*dG*dG*dA*eG*eA*eA*eG; antisense) [compound 19261]
The “% Inhibition” value of the first is higher: 41.31% for the first, 13.81% for the second.

Going from “19262 (eG*e[5mC]*eA*eG*dA*dT*dG*dA*dC*dA*dC*dA*dT*dT*eG*eG*eA*eG; antisense) [compound 19262]” to “19263 (eT*e[5mC]*eG*eA*dA*dA*dG*dC*dA*dG*dA*dT*dG*dA*e[5mC]*eA*e[5mC]*eA; antisense) [compound 19263]”, the “% Inhibition” value falls from 78.48% to 59.28%.

Compared with “19264 (eG*eT*e[5mC]*e[5mC]*dA*dA*dG*dG*dG*dT*dG*dA*dC*dA*eT*eT*eT*eT; antisense) [compound 19264]”, “19265 (e[5mC]*eA*e[5mC]*eA*dG*dC*dT*dT*dG*dT*dC*dC*dA*dA*eG*eG*eG*eT; antisense) [compound 19265]” is lower in “% Inhibition” value: 70.99% for the first, 0.00% for the second.

First: 19266 (eT*eT*eG*eG*dT*dC*dT*dC*dA*dC*dA*dG*dC*dT*eT*eG*eT*e[5mC]; antisense) [compound 19266]
Second: 19267 (e[5mC]*eA*eG*eG*dT*dC*dT*dT*dT*dG*dG*dT*dC*dT*e[5mC]*eA*e[5mC]*eA; antisense) [compound 19267]
The “% Inhibition” value of the first is lower: 45.92% for the first, 63.95% for the second.
